According to patent US9089499B2, “Para-coumaric acid or para-hydroxycinnamic acid derivatives and their use in cosmetic or dermatological compositions” (BASF Beauty Care Solutions France S.A.S., priority 2005, dated 2015):
Where two headings read alike, the source gives them in different places.

Tests used:
[1] = Antiradical activity, acellular DPPH model; details: DPPH 30 minutes, absorbance 520 nm
Protocol: The antiradical activity of the derivatives derived from the syntheses described above was evaluated in an in vitro acellular model using DPPH.
1,1-Diphenyl 2-picryihydrazyl, on account of its paramagnetic structure, can accept an electron or a hydrogen radical to become a stable diamagnetic molecule. This free radical, which is purple coloured in ethanol, has a strong absorption band at 520 nm.
The addition of a compound that provides electrons results in a decolorization of the 1,1-diphenyl 2-picrylhydrazyl that is proportional to the number of electrons taken up by the radical, which may be monitored by measuring the absorbance at 520 nm.
DPPH is incubated for 30 minutes in the presence of the derivatives described above, tested at a concentration of 10^−5M, or alone for the control. At the end of the incubation, the antiradical activity of the above derivatives is evaluated by measuring the absorbance of the solution at 520 nm.
The antiradical activity of each test product is calculated according to the formula, as a percentage: 100−((OD520 in the presence of the test compound/OD520 in the absence of compound)×100)

[2] = target: T1, Human tyrosinase (Homo sapiens, UniProt P14679); assay: Inhibition of human tyrosinase after 24 h application to normal human melanocytes in monolayer; format: cell-based; details: for inhibition at 1000 µM: 10^−3 M
T1 construct: endogenous in cells; host or cells: normal human melanocytes (abdominal surgery; several donors of fair, brown and black phototypes)
T1 sequence (P14679 19-529): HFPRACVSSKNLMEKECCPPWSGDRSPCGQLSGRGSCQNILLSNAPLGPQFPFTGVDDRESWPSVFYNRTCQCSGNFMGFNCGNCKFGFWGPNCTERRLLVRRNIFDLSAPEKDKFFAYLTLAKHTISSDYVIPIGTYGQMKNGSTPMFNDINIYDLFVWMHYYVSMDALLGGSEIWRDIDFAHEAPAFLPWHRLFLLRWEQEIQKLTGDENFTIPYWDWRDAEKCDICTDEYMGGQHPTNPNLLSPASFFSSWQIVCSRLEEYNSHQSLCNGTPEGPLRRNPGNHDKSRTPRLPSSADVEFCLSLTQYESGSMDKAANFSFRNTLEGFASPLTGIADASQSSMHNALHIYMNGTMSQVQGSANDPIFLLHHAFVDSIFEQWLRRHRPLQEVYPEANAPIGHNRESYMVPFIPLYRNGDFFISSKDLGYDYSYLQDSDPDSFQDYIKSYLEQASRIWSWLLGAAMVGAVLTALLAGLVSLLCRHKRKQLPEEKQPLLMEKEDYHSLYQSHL
Protocol: Normal human melanocytes (obtained from abdominal surgery) are seeded in 24-well plates at a rate of 80 000 cells per well. They are cultured to confluence and the active agents are applied for 24 hours to the culture media. After 24 hours, the media are removed and the melanocytes are detached via mechanical action. An extraction is performed via a thermal shock and the supernatants are then recovered and incubated with MBTH (Sigma) and L-dopa (Sigma). The OD at 490 nm is measured after 30 minutes, and the tyrosinase inhibition is calculated by relating the OD at 490 nm to the protein content (measured in each culture well) of the test relative to the ratio: OD 490 nm/protein concentration of the negative control (untreated control).
The compounds derived from the examples mentioned above were tested on melanocytes derived from various donors but of fair phototype, according to the protocol described in Example 29. The donors tested are as follows: • donor S (donor tested in Example 12): • donor 1: • donor 2: • donor 3
The compound derived from Example 1 is tested on cultures of melanocytes obtained from 2 donors of brown phototype and from one donor of black phototype. The protocol applied is that described in Example 29. […]

[3] = system: normal human melanocytes; assay: Cytotoxicity on normal human melanocytes, PNPP assay; format: cell-based; details: 24 hours, relative to untreated wells
Protocol: The cytotoxicity of the active agents is studied on normal human melanocytes in 24-well plates, via assay with PNPP (P-nitrophenyl phosphate), this substance being converted into p-nitrophenol via the intracellular acid phosphatases of viable cells. The absorbance of p-nitrophenol at 405 nm is directly proportional to the number of viable cells.
The active agents are tested at 2 different concentrations (10^−4 M and 10^−5 M) and added to the culture medium and incubated at 37° C. for 24 hours. The assay with PNPP is performed on the cell lawn and the results are expressed as a percentage of viability relative to the negative control (untreated wells).

[4] = target: T1, Human tyrosinase; assay: In vitro test of inhibition of human tyrosinase from melanocyte extracts (L-dopa/MBTH, OD 490 nm); format: biochemical; details: melanocyte extract; for inhibition at 100 µM: 10^−4M, read-out: Inhibition of human tyrosinase, percentage of inhibition, Mean 10^−4M; for inhibition at 10 µM: 10^−5M, read-out: Inhibition of human tyrosinase, percentage of inhibition, Mean 10^−5M
Protocol: Human tyrosinase, obtained from melanocyte extracts obtained from healthy donors, catalyses the formation of L-dopaquinone from L-dopa. Now, the L-dopaquinone may be quantified by visible spectrophotometry at 490 nm by means of a chromogen: 3-methyl-2-benzothiazolinone hydrazone (MBTH).
The melanocyte extract is obtained after lysis of cell membranes of the normal human melanocytes, performed via a thermal shock. The supernatant is recovered and then incubated with MBTH (Sigma) and L-dopa (Sigma). […]

[5] = system: fungal tyrosinase; assay: In vitro test of inhibition of isolated fungal tyrosinase (L-dopa, dopachrome OD 490 nm); format: biochemical; details: 490 nm
From the text: Tyrosinase catalyses the formation of L-dopaquinone and then of dopachrome from L-dopa. Now, dopachrome is a coloured compound that may be quantified by visible spectrophotometry at 490 nm. The use of an active agent capable of modifying the enzymatic activity will be reflected by a variation in the optical density at 490 nm. The to ratio of the rates of formation of dopachrome makes it possible to determine precisely the activations or inhibitions obtained with the various test molecules.
The sample to be tested is incubated in the presence of fungal tyrosinase (Sigma), for 5 minutes with stirring. L-Dopa (Sigma), a tyrosinase substrate, is incubated for 10 minutes in the absence of light, in the presence or absence of the test molecules. The calculation of the percentage of inhibition is performed by relating the test OD to the OD of the negative control without molecule.
In the context of this in vitro test, the p-coumaric acid derivatives were tested at final concentrations of 10^−4M and 10^−5M.

[6] = 10^−4M, 24 hours, read-out: Inhibition of human tyrosinase after application to normal human melanocytes, percentage of inhibition, Mean 10^−4M
[7] = 10^−5M, 24 hours, read-out: Inhibition of human tyrosinase after application to normal human melanocytes, percentage of inhibition, Mean 10^−5M
[8] = Donor 1, fair phototype, 10^−4 M, read-out: Inhibition of tyrosinase, Mean 10^−4 M, Donor 1
[9] = Donor 1, fair phototype, 10^−5 M, read-out: Inhibition of tyrosinase, Mean 10^−5 M, Donor 1
[10] = Donor 2, fair phototype, 10^−4 M, read-out: Inhibition of tyrosinase, Mean 10^−4 M, Donor 2
[11] = Donor 2, fair phototype, 10^−5 M, read-out: Inhibition of tyrosinase, Mean 10^−5 M, Donor 2
[12] = Donor 3, fair phototype, 10^−4 M, read-out: Inhibition of tyrosinase, Mean 10^−4 M, Donor 3
[13] = Donor 3, fair phototype, 10^−5 M, read-out: Inhibition of tyrosinase, Mean 10^−5 M, Donor 3
[14] = Donor S, fair phototype, 10^−4 M, read-out: Inhibition of tyrosinase, Mean 10^−4 M, Donor S
[15] = Donor S, fair phototype, 10^−5 M, read-out: Inhibition of tyrosinase, Mean 10^−5 M, Donor S

inhibition at 100 µM [2, 6] | inhibition at 10 µM [2, 7] | inhibition at 100 µM [4] | inhibition at 10 µM [4] | Inhibition of fungal tyrosinase, percentage of inhibition, Mean 10^−4M [5] | Inhibition of fungal tyrosinase, percentage of inhibition, Mean 10^−5M [5] | inhibition at 100 µM [2, 8] | inhibition at 10 µM [2, 9] | inhibition at 100 µM [2, 10] | inhibition at 10 µM [2, 11] | inhibition at 100 µM [2, 12] | inhibition at 10 µM [2, 13] | inhibition at 100 µM [2, 14] | inhibition at 10 µM [2, 15] | Structure (SMILES) | Antiradical activity, Mean 10^−5 M [1] | Percentages of viability, Mean 10^−4 M [3] | Percentages of viability, Mean 10^−5 M [3] | further results
39.8% | 15.8% | 6.42% | 4.92% | 1.35% | 0% | – | – | – | – | – | – | – | – | COc1cc(/C=C/C(=O)NCc2ccc(O)c(OC)c2)ccc1O [Example 4, N-trans-feruloyl-4-hydroxy-3-methoxyphenylmethylamine] | 15.72% | 101.94% | 99.55% | –
100% | 24.6% | 22.1% | 11.9% | 27.42% | 13.06% | 65.3% | 0% | 61.5% | 0% | 70.7% | 22.2% | 100% | 24.6% | O=C(/C=C/c1ccc(O)c(O)c1)NCCc1ccc(O)cc1 [Example 9, N-trans-caffeoyltyramine] | 41.17% | 77.9% | 94.96% | inhibition at 1000 µM ([2]; B103, Donor B, brown phototype, read-out: Inhibition of tyrosinase, Mean Donor B, 10^−3 M): 94.5%; inhibition at 100 µM ([2]; B104, Donor B, brown phototype, 10^−4 M, read-out: Inhibition of tyrosinase, Mean Donor B, 10^−4 M): 44.4%; inhibition at 1000 µM ([2]; Donor A, brown phototype, read-out: Inhibition of tyrosinase, Mean Donor A, 10^−3 M): 98.9%; inhibition at 100 µM ([2]; Donor A, brown phototype, 10^−4 M, read-out: Inhibition of tyrosinase, Mean Donor A, 10^−4 M): 44.6%; inhibition at 10 µM ([2]; Donor A, brown phototype, 10^−5 M, read-out: Inhibition of tyrosinase, Mean Donor A, 10^−5 M): 21.3%; inhibition at 10 µM ([2]; Donor B, brown phototype, 10^−5 M, read-out: Inhibition of tyrosinase, Mean Donor B, 10^−5 M): 18.9%; inhibition at 100 µM ([2]; donor of black phototype, 10^−4 M, read-out: Inhibition, Mean Negroid skin, 10^−4 M): 49.3%; inhibition at 10 µM ([2]; donor of black phototype, 10^−5 M, read-out: Inhibition, Mean Negroid skin, 10^−5 M): 16%
66.8% | 0% | 9.91% | 11.4% | 16.23% | 14.72% | 44.6% | 0% | 0% | 0.15% | 14.4% | 3.32% | 66.8% | 0% | O=C(/C=C/c1ccc(O)c(O)c1)NCCc1ccc(O)c(O)c1 [Example 10, N-trans-caffeoyldopamine] | 57.45% | 84.62% | 102.1% | –
– | 28% | 0% | 8.68% | 12.03% | 3.7% | – | – | – | – | – | – | – | – | COc1cc(CNC(=O)/C=C/c2ccc(O)c(O)c2)ccc1O [Example 11, N-trans-caffeoyl-4-hydroxy-3-methoxyphenylmethylamine] | 59.2% | – | 116.99% | –
– | 5.63% | 6.53% | 0% | 17.32% | 20.26% | – | – | – | – | – | – | – | – | COc1ccc(CCNC(=O)/C=C/c2ccc(O)c(O)c2)cc1OC [Example 12, N-trans-caffeoyl-3,4-dimethoxydopamine] | 44.51% | – | 109.84% | –
